Test results as given in patent US20150089682A1, “ALS Inhibitor Herbicide Tolerant B. Napus Mutants” (priority 2012, published 2015).

Tests used:
[1] = tested on: spring oilseed rape homozygous for HETO108 and HETO121; test: Herbicide tolerance in the field, visible phytotoxicity; type: in vivo, Brassica napus; details: for pest or weed control at 30 g/ha: AI dose rate 30 gai/ha; for pest or weed control at 50 g/ha: AI dose rate 50 gai/ha
From the text: (§1) Seeds of spring oilseed rape homozygous for HETO108 and HETO121 were sown in a field according to typical practical agricultural methods. The registered spring oilseed rape variety ABILITY served as a comparison. All plants were cultivated up to BBCH stage 14 (four true leaves of the oilseed rape plants). Afterwards, the herbicides mentioned in table 2 have been applied to the oilseed rape plants by using specific spray equipment for small plot applications. The water amount used was 200 L/ha.

[2] = tested on: spring oilseed rape variety ABILITY; test: as above; type: in vivo, Brassica napus; details: for pest or weed control at 30 g/ha: AI dose rate 30 gai/ha; for pest or weed control at 50 g/ha: AI dose rate 50 gai/ha
From the text: as §1

[3] = biological target: T1, Arabidopsis thaliana P197S-mutant ALS (Arabidopsis thaliana, UniProt P17597, E575Q/P197S); test: biochemical; details: for IC50: read-out: pI50 P197S (converted); for Resistance Factor P197S: relative to WT, from measured pI50
T1 construct: vector-encoded N-terminal fusion of pET-32a(+) (Trx/His/S tag by own knowledge); made in house; host or cells: Escherichia coli AD494
Procedure: (§2) Bacteria were grown at 37° C. in LB-medium containing 100 mg/1 carbenicillin and 25 mg/1 canamycin, induced with 1 mM isopropyl-β-D-thiogalactopyranoside at an OD600 of 0.6, cultivated for 16 hours at 18° C. and harvested by centrifugation. Bacterial pellets were resusupended in 100 mM sodium phosphate buffer pH 7.0 containing 0.1 mM thiamine-pyrophosphate, 1 mM MgCl2, and 1 μM FAD at a concentration of 1 gram wet weight per 25 ml of buffer and disrupted by sonification. The crude protein extract obtained after centrifugation was used for ALS activity measurements.
(§3) Assays were initiated by adding enzyme and terminated after 75 min incubation at 30° C. by the addition to 40 μl 0.5 M H2SO4. […] Reaction velocities were tiffed to the Michalis-Menten equation with the XLFit curve fitting program.

[4] = biological target: T2, Arabidopsis thaliana S653N-mutant ALS (Arabidopsis thaliana, UniProt P17597, E575Q/S653N); test: biochemical; details: for IC50: read-out: pI50 S653N (converted); for Resistance Factor S653N: relative to WT, from measured pI50
T2 construct: vector-encoded N-terminal fusion of pET-32a(+) (Trx/His/S tag by own knowledge); made in house; host or cells: Escherichia coli AD494
Procedure: as §2, §3

[5] = biological target: T3, Arabidopsis thaliana W574L-mutant ALS (Arabidopsis thaliana, UniProt P17597, E575Q/W574L); test: biochemical; details: for IC50: read-out: pI50 W574L (converted); for Resistance Factor W574L: relative to WT, from measured pI50
T3 construct: vector-encoded N-terminal fusion of pET-32a(+) (Trx/His/S tag by own knowledge); made in house; host or cells: Escherichia coli AD494
Procedure: as §2, §3

[6] = biological target: T4, Arabidopsis thaliana wild-type ALS (Arabidopsis thaliana, UniProt P17597, E575Q); test: biochemical; details: measured, crude extract of E. coli expressed enzyme; for IC50: read-out: pI50 WT (converted)
T4 construct: vector-encoded N-terminal fusion of pET-32a(+) (Trx/His/S tag by own knowledge); made in house; host or cells: Escherichia coli AD494
Procedure: as §2, §3

[7] = biological target: T5, mixture of P197S and W574L ALS enzymes (Arabidopsis thaliana, UniProt P17597); type: biochemical; details: for pI50 P197S & W574L: calculated for a mixture of equal activities of the two enzymes, pI50=3.0 used where measured <4; for Resistance Factor P197S & W574L: relative to WT, calculated
T5 construct: crude E. coli extract was used
Procedure: as §3
(§4) To characterize the response of a mixture of two different ALS enzymes to a given ALS inhibitor the following assumptions were made: • a inhibition is competitive and reversible • b. in the absence of inhibitor, equal activities of the ALS (mutant) enzymes 1 and 2 are present
(§5) Using experimentally determined pI50-values for various ALS-inhibiting herbicides, enzyme activities at different inhibitor concentrations were calculated (see Theory) for each ALS enzyme. Total ALS activity at any given inhibitor concentration is the sum of the activity of (mutant) enzyme 1 and (mutant) enzyme 2. If the experimentally determined pI50-value was <4, pI50=3.0 was used for the calculations. If the calculated pI50-value was 3.0, the pI50 was redefined as <4.

[8] = biological target: T6, mixture of S653N and W574L ALS enzymes (Arabidopsis thaliana, UniProt P17597); type: biochemical; details: for pI50 S653N & W574L: calculated for a mixture of equal activities of the two enzymes, pI50=3.0 used where measured <4; for Resistance Factor S653N & W574L: relative to WT, calculated
T6 construct: crude E. coli extract was used
Procedure: as §3, §4, §5

[9] = Brassica napus, topical, 432 h, HETO108-HETO121, field, 18 days after application, 0%=no phytotoxic effects, 100%=all plants killed, read-out: % phytotox
[10] = Brassica napus, topical, 432 h, ABILITY, field, 18 days after application, 0%=no phytotoxic effects, 100%=all plants killed, read-out: % phytotox
[11] = measured, crude extract of E. coli expressed enzyme
[12] = Brassica napus, topical, 432 h, read-out: % phytotox

Compound | IC50 [3, 11] | Resistance Factor P197S [3] | IC50 [4, 11] | Resistance Factor S653N [4] | IC50 [5, 11] | Resistance Factor W574L [5] | IC50 [6] | pI50 P197S & W574L [7] | Resistance Factor P197S & W574L [7] | pI50 S653N & W574L [8] | Resistance Factor S653N & W574L [8] | other results
COc1cc(OC)nc(NC(=O)NS(=O)(=O)N(C)S(C)(=O)=O)n1 [Amidosulfuron, amidosulfuron] | > 100000 nM | >501 | 7.94 nM | 0 | > 100000 nM | >501 | 200 nM | <4 | >501 | 5.6 | 13 | pest or weed control at 30 g/ha [1, 9]: 3%; pest or weed control at 30 g/ha [2, 10]: 98%
COc1cc(OC)nc(Oc2cccc(Oc3nc(OC)cc(OC)n3)c2C(=O)O)n1 [Bispyribac-sodium, bispyribac-sodium] | 79.4 nM | 4 | 251 nM | 13 | 7940 nM | 398 | 20 nM | 6.1 | 40 | 5.8 | 79 | pest or weed control at 50 g/ha [1, 9]: 75%; pest or weed control at 50 g/ha [2, 10]: 100%
CCOc1ccccc1OS(=O)(=O)NC(=O)Nc1nc(OC)cc(OC)n1 [Ethoxysulfuron, ethoxysulfuron] |  |  |  |  |  |  |  |  |  |  |  | pest or weed control at 180 g/ha ([1]; Brassica napus, topical, 432 h, HETO108-HETO121, AI dose rate 180 gai/ha, field, 18 days after application, 0%=no phytotoxic effects, 100%=all plants killed, read-out: % phytotox): 70%; pest or weed control at 180 g/ha ([2]; Brassica napus, topical, 432 h, ABILITY, AI dose rate 180 gai/ha, field, 18 days after application, 0%=no phytotoxic effects, 100%=all plants killed, read-out: % phytotox): 100%
COc1cc(OC)nc(NC(=O)NS(=O)(=O)c2ncccc2C(F)(F)F)n1 [Flazasulfuron, flazasulfuron] | 100 nM | 126 | 0.316 nM | 0 | 3160 nM | 3981 | 0.794 nM | 6.2 | 794 | 7.5 | 40 | pest or weed control at 50 g/ha [1, 9]: 80%; pest or weed control at 50 g/ha [2, 10]: 100%
COc1ncc(F)c2nc(S(=O)(=O)Nc3c(F)cccc3F)nn12 [Florasulam, florasulam] |  | 25 |  | 8 |  | 1585 |  | 5.5 | 200 | 5.7 | 126 | % phytotox ([1]; HETO108-HETO121, AI dose rate 10 gai/ha, field, 18 days after application, 0%=no phytotoxic effects, 100%=all plants killed): 70%; % phytotox ([2]; ABILITY, AI dose rate 10 gai/ha, field, 18 days after application, 0%=no phytotoxic effects, 100%=all plants killed): 100%; pI50 P197S [3, 11]: 6.4; pI50 S653N [4, 11]: 6.9; pI50 W574L [5, 11]: 4.6; pI50 WT [6]: 7.8
COC(=O)c1ccc(C(F)(F)F)nc1S(=O)(=O)NC(=O)Nc1nc(OC)cc(OC)n1 [Flupyrsulfuron-methyl, flupyrsulfuron-methyl-sodium] |  |  |  |  |  |  |  |  |  |  |  | pest or weed control at 10 g/ha [1, 12]: 35%; pest or weed control at 10 g/ha [2, 12]: 100%
COCc1cnc(C2=NC(C)(C(C)C)C(=O)N2)c(C(=O)O)c1 (stereo not drawn) [Imazamox, imazamox] | 5010 nM | 1 | > 100000 nM | >25 | > 100000 nM | >25 | 3980 nM | 4.1 | 20 | <4 | >25 | pest or weed control at 40 g/ha ([1]; Brassica napus, topical, 432 h, HETO108-HETO121, AI dose rate 40 gai/ha, field, 18 days after application, 0%=no phytotoxic effects, 100%=all plants killed, read-out: % phytotox): 19%; pest or weed control at 40 g/ha ([2]; Brassica napus, topical, 432 h, ABILITY, AI dose rate 40 gai/ha, field, 18 days after application, 0%=no phytotoxic effects, 100%=all plants killed, read-out: % phytotox): 99%
COC(=O)c1ccc(CNS(C)(=O)=O)cc1S(=O)(=O)NC(=O)Nc1nc(OC)cc(OC)n1 [Mesosulfaron-methyl, mesosulfuron-methyl] |  | 79 |  | 16 |  | 31623 |  |  | 794 |  | 200 | % phytotox ([1]; HETO108-HETO121, AI dose rate 15 gai/ha, field, 18 days after application, 0%=no phytotoxic effects, 100%=all plants killed): 30%; % phytotox ([2]; ABILITY, AI dose rate 15 gai/ha, field, 18 days after application, 0%=no phytotoxic effects, 100%=all plants killed): 99%
COc1cc(OC)n2nc(S(=O)(=O)Nc3c(Cl)ccc(C)c3Cl)nc2n1 [Metosulam, metosulam] | 1580 nM | 631 | 6.31 nM | 3 | 20000 nM | 7943 | 2.51 nM | 5.2 | 2512 | 6.4 | 158 | pest or weed control at 30 g/ha [1, 9]: 35%; pest or weed control at 30 g/ha [2, 10]: 100%
COC(=O)c1ccccc1S(=O)(=O)NC(=O)Nc1nc(C)nc(OC)n1 [Metsulfuron-methyl, metsulfuron-methyl] |  | 50 |  | 6 |  | 1000 |  |  | 251 |  | 79 | % phytotox ([1]; HETO108-HETO121, AI dose rate 8 gai/ha, field, 18 days after application, 0%=no phytotoxic effects, 100%=all plants killed): 73%; % phytotox ([2]; ABILITY, AI dose rate 8 gai/ha, field, 18 days after application, 0%=no phytotoxic effects, 100%=all plants killed): 100%
CCCOc1nn(C(=O)[N-]S(=O)(=O)c2ccccc2C(=O)OC)c(=O)n1C.[Na+] [Propoxycarbazone, propoxycarbazone-sodium] |  | 158 |  | 25 |  | 316 |  |  | 200 |  | 100 | % phytotox ([1]; HETO108-HETO121, AI dose rate 70 gai/ha, field, 18 days after application, 0%=no phytotoxic effects, 100%=all plants killed): 65%; % phytotox ([2]; ABILITY, AI dose rate 70 gai/ha, field, 18 days after application, 0%=no phytotoxic effects, 100%=all plants killed): 100%
COC(=O)c1ccccc1S(=O)(=O)NC(=O)N(C)c1nc(C)nc(OC)n1 [Tribenuron-methyl, tribenuron-methyl] |  |  |  |  |  |  |  |  |  |  |  | pest or weed control at 20 g/ha ([1]; Brassica napus, topical, 432 h, HETO108-HETO121, AI dose rate 20 gai/ha, field, 18 days after application, 0%=no phytotoxic effects, 100%=all plants killed, read-out: % phytotox): 5%; pest or weed control at 20 g/ha ([2]; Brassica napus, topical, 432 h, ABILITY, AI dose rate 20 gai/ha, field, 18 days after application, 0%=no phytotoxic effects, 100%=all plants killed, read-out: % phytotox): 99%
iodosulfuron-methyl-sodium [Iodosulfuron-methy-sodium] |  | 158 |  | 10 |  | 631 |  |  |  |  | 79 | % phytotox ([1]; HETO108-HETO121, AI dose rate 7 gai/ha, field, 18 days after application, 0%=no phytotoxic effects, 100%=all plants killed): 43%; % phytotox ([2]; ABILITY, AI dose rate 7 gai/ha, field, 18 days after application, 0%=no phytotoxic effects, 100%=all plants killed): 100%
